Patent US7405205B2, “Antitumor antisense sequences directed against R1 and R2 components of ribonucleotide reductase” (Lorus Therapeutics Inc., priority 1996, dated 2008)

Experiments:
[1] = test system: wild type (W.T.) mouse L cells; test: Drug sensitivity by relative colony forming efficiency; type: cell-based
[2] = test system: HeLa S3 cells; test: Sensitisation to PALA and MTX by antisense, relative colony forming efficiency; type: cell-based, human; conditions: PALA 20 μM, without AS-II-2229B-20
Method: (§1) Drug Selections: Cells ranging in numbers from 500 to 1-2×10^5 were added to 100 mm tissue culture plates in growth medium containing 10% dialyzed fetal bovine serum, and in the absence or presence of drug [Huang et al., 1995a; Choy et al., 1988]. The culture medium was replaced with fresh medium every week for two to three weeks. Surviving cells were visualized by methylene blue staining, and colonies of about 50 cells or more were scored [Huang et al., 1995a]. The relative colony forming efficiency was defined as the ability to produce colonies in the presence of a drug divided by that ability in the absence of drug.
(§2) Colony forming efficiency was determined as previously reported [Huang and Wright, 1994]. The cells were cultured for 24 hours at 37° C. in growth medium with 10% fetal bovine serum. The cells were washed in 5 ml phosphate buffered saline, pH 7.2, once prior to lipofectin+/−oligonucleotide treatment.
(§3) The oligonucleotides being tested were added to cell cultures in the presence of 2.5 μg of DOTMA/DOPE (Lipofectin; Life Technologies, Inc.) for four hours. The oligonucleotide was tested at 0.2 μM unless otherwise indicated. Controls were the cultures treated with lipofectin but without the oligonucleotide. After 4 hours the medium containing the oligonucleotide was removed and washed with 5 ml of growth medium. The cells were then cultured in growth medium containing 10% fetal bovine serum for seven to ten days. Surviving cells were visualized by methylene blue staining, and colonies were scored. In some experiments cell aliquotes were removed from the culture and viability was determined using the trypan blue exclusion test [Phillips, 1973]. Results were analyzed as percent of surviving cells compared to control cells.
(§4) Based on Example 2, treatment of human tumor cells with very low concentrations of short antisense sequences was tested to determine if these constructs could sensitize the tumor cells to inhibitory effects of other chemotherapeutic drugs. […] These observations indicate that antisense compounds targeting the R2 message can act synergistically with well known chemotherapeutic agents.

[3] = test system: HeLa 1 mM cells; test: as above; type: cell-based, human; conditions: without AS-II-2229B-20
Method: as §1, §2, §3, §4

[4] = test system: H4 (H-4) hydroxyurea resistant mouse L cells; test: Drug sensitivity by relative colony forming efficiency; type: cell-based
[5] = test system: B3/mR2 cells (BALB/c 3T3, R2 expression vector); test: as above; type: cell-based, mouse
[6] = test system: B3/R2c2 cells (clone of B3/mR2); test: as above; type: cell-based, mouse
[7] = test system: RP3/SH cells (10T½, H-ras and mutant p53); test: as above; type: cell-based, mouse
[8] = test system: RP3/ASR2 cells (RP3 with R2 antisense vector); test: as above; type: cell-based, mouse
[9] = test system: N/R2-4 cells (NIH-3T3, R2 expression vector); test: as above; type: cell-based, mouse
[10] = test system: N/R2+ASR2 cells (NIH-3T3, R2 and R2 antisense vectors); test: as above; type: cell-based, mouse
[11] = test system: SC2 hydroxyurea resistant mouse L cells; test: as above; type: cell-based
[12] = test system: RP6/SH cells (10T½, H-ras and mutant p53); test: as above; type: cell-based, mouse
[13] = test system: N/SH cells (NIH-3T3, empty vector); test: as above; type: cell-based, mouse
[14] = test system: LHF hydroxyurea resistant mouse L cells; test: as above; type: cell-based
[15] = test system: H2 (H-2) hydroxyurea resistant mouse L cells; test: as above; type: cell-based
[16] = test system: B3/SH cells (BALB/c 3T3, empty vector); test: as above; type: cell-based, mouse
[17] = test system: RP6/ASR2 cells (RP6 with R2 antisense vector); test: as above; type: cell-based, mouse

## O=C(O)C[C@H](NC(=O)CP(=O)(O)O)C(=O)O [PALA, N-(phosphonacetyl)-L-aspartate]
[1]; PALA 20 μM
  Relative Colony Forming Efficiencies: 172.3 ± 126.3 × 10^4
[1]; PALA 30 μM
  Relative Colony Forming Efficiencies: 50.3 ± 20.5 × 10^4
[1]; PALA 40 μM
  Relative Colony Forming Efficiencies: 15.0 ± 7.0 × 10^4
[1]; PALA 50 μM
  Relative Colony Forming Efficiencies: 3.6 ± 1.1 × 10^4
[1]; PALA 60 μM
  Relative Colony Forming Efficiencies: 1.3 ± 0.4 × 10^4
[2]
  Relative colony Forming Efficiency: 350 ± 50
[3]; PALA 20 μM
  Relative colony Forming Efficiency: 377 ± 21
[3]; PALA 30 μM
  Relative colony Forming Efficiency: 311 ± 9.5
[4]; PALA 20 μM
  Relative Colony Forming Efficiencies: 322.5 ± 36.4 × 10^4
[4]; PALA 30 μM
  Relative Colony Forming Efficiencies: 84.0 ± 30.0 × 10^4
[4]; PALA 40 μM
  Relative Colony Forming Efficiencies: 43.3 ± 9.6 × 10^4
[4]; PALA 50 μM
  Relative Colony Forming Efficiencies: 23.2 ± 0.5 × 10^4
[4]; PALA 60 μM
  Relative Colony Forming Efficiencies: 11.1 ± 1.4 × 10^4
[5]; PALA 10 μM
  Relative Colony Forming Efficiencies: 965.0 ± 529.7 × 10^4
[5]; PALA 20 μM
  Relative Colony Forming Efficiencies: 120.1 ± 28.4 × 10^4
[5]; PALA 40 μM
  Relative Colony Forming Efficiencies: 25.0 ± 4.6 × 10^4
[5]; PALA 50 μM
  Relative Colony Forming Efficiencies: 27.6 ± 8.9 × 10^4
[5]; PALA 60 μM
  Relative Colony Forming Efficiencies: 25.0 ± 6.4 × 10^4
[5]; PALA 80 μM
  Relative Colony Forming Efficiencies: 27.1 ± 6.75 × 10^4
[6]; PALA 10 μM
  Relative Colony Forming Efficiencies: 1230.0 ± 97.0 × 10^4
[6]; PALA 20 μM
  Relative Colony Forming Efficiencies: 55.1 ± 15.6 × 10^4
[6]; PALA 40 μM
  Relative Colony Forming Efficiencies: 20.2 ± 6.8 × 10^4
[6]; PALA 50 μM
  Relative Colony Forming Efficiencies: 15.9 ± 4.0 × 10^4
[6]; PALA 60 μM
  Relative Colony Forming Efficiencies: 18.7 ± 5.3 × 10^4
[6]; PALA 80 μM
  Relative Colony Forming Efficiencies: 20.0 ± 4.9 × 10^4
[7]; PALA 10 μM
  Relative Colony Forming Efficiencies: 2569 ± 338 × 10^4
[7]; PALA 20 μM
  Relative Colony Forming Efficiencies: 123.4 ± 19.3 × 10^4
[7]; PALA 30 μM
  Relative Colony Forming Efficiencies: 45.2 ± 7.8 × 10^4
[7]; PALA 40 μM
  Relative Colony Forming Efficiencies: 15.0 ± 4.9 × 10^4
[7]; PALA 50 μM
  Relative Colony Forming Efficiencies: 9.3 ± 3.6 × 10^4
[7]; PALA 60 μM
  Relative Colony Forming Efficiencies: 3.9 ± 1.6 × 10^4
[8]; PALA 10 μM
  Relative Colony Forming Efficiencies: 1183 ± 384 × 10^4
[8]; PALA 20 μM
  Relative Colony Forming Efficiencies: 86.1 ± 32.9 × 10^4
[8]; PALA 30 μM
  Relative Colony Forming Efficiencies: 19.5 ± 4.7 × 10^4
[8]; PALA 40 μM
  Relative Colony Forming Efficiencies: 4.7 ± 0.6 × 10^4
[8]; PALA 50 μM
  Relative Colony Forming Efficiencies: 2.1 ± 0.8 × 10^4
[8]; PALA 60 μM
  Relative Colony Forming Efficiencies: 0.3 ± 0.2 × 10^4
[9]; PALA 10 μM
  Relative Colony Forming Efficiencies: 6.22 ± 3.3 × 10^4
[9]; PALA 15 μM
  Relative Colony Forming Efficiencies: 10.0 ± 5.5 × 10^4
[9]; PALA 20 μM
  Relative Colony Forming Efficiencies: 1.71 ± 1.2 × 10^4
[9]; PALA 25 μM
  Relative Colony Forming Efficiencies: 0.8 ± 0.7 × 10^4
[9]; PALA 30 μM
  Relative Colony Forming Efficiencies: 1.03 ± 0.07 × 10^4
[9]; PALA 40 μM
  Relative Colony Forming Efficiencies: 0.14 ± 0.08 × 10^4
[10]; PALA 10 μM
  Relative Colony Forming Efficiencies: 1.81 ± 0.8 × 10^4
[10]; PALA 15 μM
  Relative Colony Forming Efficiencies: 0.58 ± 0.3 × 10^4
[10]; PALA 20 μM
  Relative Colony Forming Efficiencies: 0.04 ± 0.04 × 10^4
[10]; PALA 25 μM
  Relative Colony Forming Efficiencies: 0.04 ± 0.04 × 10^4
[10]; PALA 30 μM
  Relative Colony Forming Efficiencies: 0.12 ± 0.12 × 10^4
[10]; PALA 40 μM
  Relative Colony Forming Efficiencies: 0.04 ± 0.04 × 10^4
[11]; PALA 20 μM
  Relative Colony Forming Efficiencies: 850.1 ± 325.2 × 10^4
[11]; PALA 30 μM
  Relative Colony Forming Efficiencies: 187.6 ± 46.4 × 10^4
[11]; PALA 40 μM
  Relative Colony Forming Efficiencies: 37.5 ± 8.7 × 10^4
[11]; PALA 50 μM
  Relative Colony Forming Efficiencies: 47.5 ± 35.8 × 10^4
[11]; PALA 60 μM
  Relative Colony Forming Efficiencies: 17.6 ± 1.2 × 10^4
[12]; PALA 10 μM
  Relative Colony Forming Efficiencies: 4619 ± 648 × 10^4
[12]; PALA 20 μM
  Relative Colony Forming Efficiencies: 1220 ± 255 × 10^4
[12]; PALA 30 μM
  Relative Colony Forming Efficiencies: 450 ± 129 × 10^4
[12]; PALA 40 μM
  Relative Colony Forming Efficiencies: 271 ± 68 × 10^4
[12]; PALA 50 μM
  Relative Colony Forming Efficiencies: 109 ± 23 × 10^4
[12]; PALA 60 μM
  Relative Colony Forming Efficiencies: 55.5 ± 13 × 10^4
[13]; PALA 10 μM
  Relative Colony Forming Efficiencies: 5.28 ± 1.5 × 10^4
[13]; PALA 15 μM
  Relative Colony Forming Efficiencies: 5.83 ± 2.7 × 10^4
[13]; PALA 20 μM
  Relative Colony Forming Efficiencies: 0.30 ± 0.1 × 10^4
[13]; PALA 25 μM
  Relative Colony Forming Efficiencies: 0.53 ± 0.3 × 10^4
[13]; PALA 30 μM
  Relative Colony Forming Efficiencies: 0.48 ± 0.08 × 10^4
[13]; PALA 40 μM
  Relative Colony Forming Efficiencies: 0.27 ± 0.2 × 10^4
[14]; PALA 20 μM
  Relative Colony Forming Efficiencies: 233.3 ± 3.6 × 10^4
[14]; PALA 30 μM
  Relative Colony Forming Efficiencies: 78.8 ± 7.9 × 10^4
[14]; PALA 40 μM
  Relative Colony Forming Efficiencies: 46.5 ± 9.9 × 10^4
[14]; PALA 50 μM
  Relative Colony Forming Efficiencies: 25.0 ± 6.8 × 10^4
[14]; PALA 60 μM
  Relative Colony Forming Efficiencies: 10.7 ± 3.0 × 10^4
[15]; PALA 20 μM
  Relative Colony Forming Efficiencies: 406.7 ± 202.2 × 10^4
[15]; PALA 30 μM
  Relative Colony Forming Efficiencies: 39.4 ± 16.4 × 10^4
[15]; PALA 40 μM
  Relative Colony Forming Efficiencies: 23.3 ± 10.4 × 10^4
[15]; PALA 50 μM
  Relative Colony Forming Efficiencies: 7.9 ± 1.7 × 10^4
[15]; PALA 60 μM
  Relative Colony Forming Efficiencies: 3.6 ± 0.6 × 10^4
[16]; PALA 10 μM
  Relative Colony Forming Efficiencies: 17.9 ± 11.0 × 10^4
[16]; PALA 20 μM
  Relative Colony Forming Efficiencies: 0.39 ± 0.18 × 10^4
[16]; PALA 40 μM
  Relative Colony Forming Efficiencies: 0.35 ± 0.01 × 10^4
[16]; PALA 50 μM
  Relative Colony Forming Efficiencies: 0.24 ± 0.14 × 10^4
[16]; PALA 60 μM
  Relative Colony Forming Efficiencies: 0.12 ± 0.05 × 10^4
[16]; PALA 80 μM
  Relative Colony Forming Efficiencies: 0.17 ± 0.08 × 10^4
[17]; PALA 10 μM
  Relative Colony Forming Efficiencies: 2083 ± 960 × 10^4
[17]; PALA 20 μM
  Relative Colony Forming Efficiencies: 368 ± 154 × 10^4
[17]; PALA 30 μM
  Relative Colony Forming Efficiencies: 316 ± 171 × 10^4
[17]; PALA 40 μM
  Relative Colony Forming Efficiencies: 116 ± 54 × 10^4
[17]; PALA 50 μM
  Relative Colony Forming Efficiencies: 41.7 ± 23 × 10^4
[17]; PALA 60 μM
  Relative Colony Forming Efficiencies: 13.2 ± 6.3 × 10^4
